According to patent publication US20110077294A1, “R-(-) / S-(+)-7-[3-N SUBSTITUTED AMINO-2 HYDROXYPROPOXY] FLAVONES” (priority 2006, published 2011):

How the values were obtained:
Assay type in all cases: in vivo
[1] = system: C57BL/KsBom-db/db mice; assay: Serum lipid profile of treated db/db mice (antidyslipidemic activity); settings: db/db mice, 25 mg/kg
[2] = system: C57BL/KsBom-db/db mice; assay: as above; settings: 25 mg/kg
Procedure: (§1) C57BL/KsBom-db/db mice (12-18 weeks old), weighing around 35+g bred in the animal house of CDRI, Lucknow, were used in the present experiments. The mice were housed in groups of 3 to 5 (same sex) in a room controlled for temperature (23±2.0 ° C.) and 12/12 hours light/dark cycle (lights on at 6.00 am). Body weight of each animal was measured daily from day 1 to day 10 of the experiment. All animals had free access to fresh water and normal pellet diet except on the day of the postprandial protocol (day 6) and during the overnight fast before the OGTT on day 10. The animals always had access to water during experimental periods. Blood glucose was checked every morning up till day 10. On day 10 an oral glucose tolerance test (OGTT) was performed after an overnight fasting. Blood glucose was measured at −30.0 min and test compounds were administered. The blood glucose was again measured at 0 min just post treatment and at this juncture glucose solution was given at a dose of 3 gm/kg to all the groups including the vehicle treated group. The blood glucose levels were checked at 30 min, 60 min, 90 min and 120 min post glucose administration. The data was analyzed for its significance on Prism software.

[3] = system: C57BL/KsBom-db/db mice; assay: Oral glucose tolerance test (OGTT) on day 10 in db/db mice; settings: 25 mg/kg
Procedure: as §1

[4] = system: C57BL/KsBom-db/db mice; assay: Blood glucose profile of db/db mice during daily treatment (antihyperglycemic activity)
Procedure: as §1

With `CC(C)NC[C@H](O)COc1ccc2c(=O)cc(-c3cc(O)cc(O)c3)oc2c1` [S-002-857 (S), (S)-(+)-7-(2-Hydroxy-3-isopropylaminopropoxy)-3′,5′-dihydroxyflavone] the “elevation in HDL-cholesterol level than control” value [1] was 17.3%, the “Serum lipid profile: Cholesterol” value [2] was 152 ± 7.00 mg/dL and the “Serum lipid profile: HDL-Chol” value [2] was 65.0 ± 6.03 mg/dL. For the same compound, the “Serum lipid profile: Triglycerides” value [2] was 124 ± 3.51 mg/dL, the “serum cholesterol, triglycerides (lipid profile) compared to sham treated (in words)” value [2] was “not statistically significant” and the “Cholesterol % change compared to control” value ([2]; vs sham) was −11.2%. For the same compound, the “HDL-Chol % change compared to control” value ([2]; vs sham) was “+17.3%”, the “Triglycerides % change compared to control” value ([2]; vs sham) was −6.54% and the “Blood glucose profile, 0 min post glucose load” value ([3]; OGTT day 10, 0 min) was 13.8 ± 2.18 mM. The “Blood glucose % change compared to control, 0 min post glucose load” value ([3]; OGTT day 10, 0 min, vs sham) was −21.1%, the “Blood glucose profile, 30 min post glucose load” value ([3]; OGTT day 10, 30 min) was 25.3 ± 0.58 mM and the “Blood glucose % change compared to control, 30 min post glucose load” value ([3]; OGTT day 10, 30 min, vs sham) was −23.7%. The “Blood glucose profile, 60 min post glucose load” value ([3]; OGTT day 10, 60 min) was 19.8 ± 1.20 mM, the “Blood glucose % change compared to control, 60 min post glucose load” value ([3]; OGTT day 10, 60 min, vs sham) was −26.9% and the “Blood glucose profile, 90 min post glucose load” value ([3]; OGTT day 10, 90 min) was 15.2 ± 0.48 mM. The “Blood glucose % change compared to control, 90 min post glucose load” value ([3]; OGTT day 10, 90 min, vs sham) was −31.5%, the “Blood glucose profile, 120 min post glucose load” value ([3]; OGTT day 10, 120 min) was 11.6 ± 0.58 mM and the “Blood glucose % change compared to control, 120 min post glucose load” value ([3]; OGTT day 10, 120 min, vs sham) was −37.6%. For the same compound, the “Blood glucose profile, −30 min post glucose load” value ([3]; OGTT day 10, −30 min) was 8.76 ± 1.90 mM, the “Blood glucose % change compared to control, −30 min post glucose load” value ([3]; OGTT day 10, −30 min, vs sham) was −32.2% and the “effect of 10 days treatment on glucose tolerance (overall improvement in OGTT)” value ([3]; vs sham) was 27%. For the same compound, the “average blood glucose lowering” value ([4]; 25.0 mg/kg) was “around 20%”, the “Blood glucose, day 1 post treatment” value ([4]; 25 mg/kg, day 1) was 12.7 ± 2.61 mM and the “Blood glucose % change compared to control, day 1” value ([4]; 25 mg/kg, day 1, vs sham) was −1.60%. For the same compound, the “Blood glucose, day 2 post treatment” value ([4]; 25 mg/kg, day 2) was 12.3 ± 2.40 mM, the “Blood glucose % change compared to control, day 2” value ([4]; 25 mg/kg, day 2, vs sham) was −0.80% and the “Blood glucose, day 3 post treatment” value ([4]; 25 mg/kg, day 3) was 11.5 ± 1.80 mM. The “Blood glucose % change compared to control, day 3” value ([4]; 25 mg/kg, day 3, vs sham) was −8.13%, the “Blood glucose, day 4 post treatment” value ([4]; 25 mg/kg, day 4) was 11.3 ± 2.54 mM and the “Blood glucose % change compared to control, day 4” value ([4]; 25 mg/kg, day 4, vs sham) was −12.7%. For the same compound, the “Blood glucose, day 5 post treatment” value ([4]; 25 mg/kg, day 5) was 10.1 ± 2.08 mM, the “Blood glucose % change compared to control, day 5” value ([4]; 25 mg/kg, day 5, vs sham) was −25.3% and the “Blood glucose, day 6 post treatment” value ([4]; 25 mg/kg, day 6) was 9.19 ± 2.25 mM. The “Blood glucose % change compared to control, day 6” value ([4]; 25 mg/kg, day 6, vs sham) was −29.1%, the “Blood glucose, day 7 post treatment” value ([4]; 25 mg/kg, day 7) was 9.41 ± 1.37 mM and the “lowering in blood glucose, day 7” value ([4]; 25.0 mg/kg, day 7, statistically significant) was “around 37.4%”. For the same compound, the “Blood glucose % change compared to control, day 7” value ([4]; 25 mg/kg, day 7, vs sham) was −37.4%, the “Blood glucose, day 8 post treatment” value ([4]; 25 mg/kg, day 8) was 9.28 ± 1.02 mM and the “lowering in blood glucose, day 8” value ([4]; 25.0 mg/kg, day 8, statistically significant) was about 36.8%. For the same compound, the “Blood glucose % change compared to control, day 8” value ([4]; 25 mg/kg, day 8, vs sham) was −36.8%, the “Blood glucose, day 9 post treatment” value ([4]; 25 mg/kg, day 9) was 7.56 ± 2.13 mM and the “lowering in blood glucose, day 9” value ([4]; 25.0 mg/kg, day 9, statistically significant) was about 43.3%. For the same compound, the “Blood glucose % change compared to control, day 9” value ([4]; 25 mg/kg, day 9, vs sham) was −43.3%.
